Legend:
[1] = mRNA encapsulation efficiency by RiboGreen assay; format: physicochemical; conditions: FLuc mRNA-loaded LNP made with the lipid; for Encap)-sulation (%: Table 1
Protocol: (§1) The Firefly luciferase (FLuc) reporter mRNA-loaded lipid nanoparticles (LNPs) were formulated by NANOASSEMBLR® IGNITE™. Briefly, the lipid, cholesterol, 1,2-dimyristoyl-rac-glycero-3-methoxypolyethylene glycol-2000 (DMG-PEG2000), and […] (DSPC) mixture was prepared in ethanolic solution at the % mole ratio of […]. Three units of FLuc mRNA was dissolved in 25 mM sodium acetate pH 5.0 buffer and one unit of lipid mixture were rapidly combined in the microfluidic mixing cartridge at an amine-to-phosphate (N/P) ratio constant at 6, and the instrument flow rate set at 12 mL/min. The mRNA-LNPs performed a 40-fold dilution of calcium and magnesium-free phosphate-buffered saline (PBS) to reach pH neutral. Then, LNPs were concentrated using Amicon® Ultra-15 Centrifugal Filter Unit.
(§2) The mRNA-LNPs were characterized in terms of hydrodynamic size (z-average diameter), zeta potential, and polydispersity index by ZETASIZER™ PRO BLUE (MALVERN PANALYTICAL®). A QUANT-IT™ RIBOGREEN assay kit (THERMOFISHER®) was conducted to identify the mRNA concentration and encapsulation efficiency. In brief, mRNA-LNPs were diluted in equal volumes of Tris/EDTA (TE) buffer or 2% Triton X-100 in TE buffer. After that, a RIBOGREEN reagent was added to each sample and incubated at 37° C. in absence of light for 15 min. The fluorescence intensity (Ex/Em 480/520 nm) was detected on a TECAN™ Microplate reader. The encapsulation efficiency (E.E) can be calculated by the formula:
E.E(%)=(Total mRNA concentration−Unencapsulated mRNA concentration)/(Total mRNA concentration)×100%

[2] = LNP hydrodynamic size, polydispersity index and zeta potential by Zetasizer; format: physicochemical; conditions: FLuc mRNA-loaded LNP
Protocol: as §1
as §2, with “formula: […]” for “formula:”

HEPG2 cells [3] = assay: Transfection efficiency of FLuc mRNA-LNPs in HEPG2 cells (luminescence); format: cell-based; conditions: 18 hours
Protocol: (§3) To investigate the potential and cytotoxicity of mRNA-LNP made from novel lipids, FLuc mRNA (TRILINK®) was encapsulated into LNPs and transfected to the cell line. HEPG2 cells were maintained at 37° C. under 5% CO2 in a DMEM medium with 10% fetal bovine serum. Cells were seeded at 4×10^4 cells/well and treated with FLuc mRNA-LNPs for 18 hours while cell confluency reach 70%. To explore transfection efficiency, HEPG2 cells were treated with D-luciferin and mixed thoroughly for another incubation of 5 min at 37° C. The luminescence intensity was recorded using M200 Microplate Reader (TECAN®). Cell viability was evaluated by Cell Counting Kit-8 (SIGMA-ALDRICH®) and the absorbance was measured at 450 nm.

HEPG2 cells [4] = assay: Cytotoxicity in HEPG2 cells (Cell Counting Kit-8); format: cell-based; conditions: FLuc mRNA-LNPs, 18 hours
Protocol: as §3

Encap)-sulation (% [1] [%]	LNP zeta potential (mV) ([2]; Table 1)	PDI ([2]; Table 1)	LNP size (nm) ([2]; z-average diameter, Table 1)	Encapsulation (%) ([1]; Table 2)	LNP size (nm) ([2]; Table 2)	LNP zeta potential (mV) ([2]; Table 2)	PDI ([2]; Table 2)	SMILES	Transfection efficiency (relative to SM-102, %) (HEPG2 cells [3]) [%]	Cytotoxicity in HEPG2 (HEPG2 cells [4])
98.5	−7.06	0.026	73.80	–	–	–	–	CCCCCCCCC(CCCCCCCC)OC(=O)CCO[C@H]1CN(CCO)C[C@H]1OCCC(=O)OC(CCCCCCCC)CCCCCCCC [Compound 1, di(heptadecan-9-yl)3,3′-(((3R,4S)-1-(2-hydroxyethyl)pyrrolidine-3,4-diyl)bis(oxy))dipropionate]	–	–
98.1	−5.73	0.033	74.65	–	–	–	–	CCCCCCCCC(CCCCCCCC)OC(=O)CCO[C@H]1CN(CCCO)C[C@H]1OCCC(=O)OC(CCCCCCCC)CCCCCCCC [Compound 2]	–	–
97.92	6.98	0.016	98.84	–	–	–	–	CCCCCCCCC(CCCCCCCC)OC(=O)CCCCO[C@H]1CN(CCCO)C[C@H]1OCCCCC(=O)OC(CCCCCCCC)CCCCCCCC [Compound 3, di(heptadecan-9-yl)5,5′-(((3S,4R)-1-(3-hydroxypropyl)pyrrolidine-3,4-diyl)bis(oxy))dipentanoate]	–	–
98.43	1.03	0.015	79.20	–	–	–	–	CCCCCCCCC(CCCCCCCC)OC(=O)CCCCO[C@H]1CN(CCO)C[C@H]1OCCCCC(=O)OC(CCCCCCCC)CCCCCCCC [Compound 4, di(heptadecan-9-yl)5,5′-(((3S,4R)-1-(2-hydroxyethyl)pyrrolidine-3,4-diyl)bis(oxy))dipentanoate]	–	–
97.22	2.41	0.025	87.10	–	–	–	–	CCCCCCCCC(CCCCCCCC)OC(=O)CCO[C@H]1CN(CCCCO)C[C@H]1OCCC(=O)OC(CCCCCCCC)CCCCCCCC [Compound 7, di(heptadecan-9-yl)3,3′-(((3R,4S)-1-(4-hydroxybutyl)pyrrolidine-3,4-diyl)bis(oxy))dipropionate]	–	–
97.58	10.95	0.014	80.71	97.58	80.71	10.95	0.014	CCCCCCCCC(CCCCCCCC)OC(=O)CCCCCO[C@H]1CN(CCCO)C[C@H]1OCCCCCC(=O)OC(CCCCCCCC)CCCCCCCC [Compound 11, di(heptadecan-9-yl)6,6′-(((3R,4S)-1-(3-hydroxypropyl)pyrrolidine-3,4-diyl)bis(oxy))dihexanoate]	100	— (The toxicity of compounds 11 and 14 is less than 10%)
96.99	7.83	0.039	78.35	–	–	–	–	CCCCCCCCC(CCCCCCCC)OC(=O)CCCCCO[C@H]1CN(CCCCCO)C[C@H]1OCCCCCC(=O)OC(CCCCCCCC)CCCCCCCC [Compound 12, di(heptadecan-9-yl)6,6′-(((3R,4S)-1-(5-hydroxypentyl)pyrrolidine-3,4-diyl)bis(oxy))dihexanoate]	–	–
97.39	12.45	0.046	81.29	–	–	–	–	CCCCCCCCC(CCCCCCCC)OC(=O)CCCCCO[C@H]1CN(CCCCO)C[C@H]1OCCCCCC(=O)OC(CCCCCCCC)CCCCCCCC [Compound 13, di(heptadecan-9-yl)6,6′-(((3R,4S)-1-(4-hydroxybutyl)pyrrolidine-3,4-diyl)bis(oxy))dihexanoate]	–	–

Continued, compound first:

SMILES	Encap)-sulation (% [1] [%]	LNP zeta potential (mV) ([2]; Table 1)	PDI ([2]; Table 1)	LNP size (nm) ([2]; z-average diameter, Table 1)	Encapsulation (%) ([1]; Table 2)	LNP size (nm) ([2]; Table 2)	LNP zeta potential (mV) ([2]; Table 2)	PDI ([2]; Table 2)	Transfection efficiency (relative to SM-102, %) (HEPG2 cells [3]) [%]	Cytotoxicity in HEPG2 (HEPG2 cells [4])
CCCCCCCCC(CCCCCC)C(=O)OCCCCCCO[C@H]1CN(CCCO)C[C@H]1OCCCCCCOC(=O)C(CCCCCC)CCCCCCCC (stereo partly drawn) [Compound 14, (((3S,4R)-1-(3-hydroxypropyl)pyrrolidine-3,4-diyl)bis(oxy))bis(hexane-6,1-diyl)bis(hexyldecanoate)]	–	–	–	–	–	–	–	–	105	— (The toxicity of compounds 11 and 14 is less than 10%)
CCCCCCCCCCC(CCCCCCCC)COC(=O)CCCCO[C@H]1CN(CCCO)C[C@H]1OCCCCC(=O)OCC(CCCCCCCC)CCCCCCCCCC (stereo partly drawn) [Compound 17, bis(2-octyldodecyl)5,5′-(((3R,4S)-1-(3-hydroxypropyl)pyrrolidine-3,4-diyl)bis(oxy))dipentanoate]	98.16	8.00	0.03	95.10	–	–	–	–	–	–
CCCCCCCCCCC(CCCCCCCC)COC(=O)CCCCO[C@H]1CN(CCCCCO)C[C@H]1OCCCCC(=O)OCC(CCCCCCCC)CCCCCCCCCC (stereo partly drawn) [Compound 18, bis(2-octyldodecyl)5,5′-(((3R,4S)-1-(5-hydroxypentyl)pyrrolidine-3,4-diyl)bis(oxy))dipentanoate]	97.57	9.52	0.03	86.61	–	–	–	–	–	–
CCCCCCCCCCC(CCCCCCCC)COC(=O)CCCCO[C@H]1CN(CCCCCCO)C[C@H]1OCCCCC(=O)OCC(CCCCCCCC)CCCCCCCCCC (stereo partly drawn) [Compound 19, bis(2-octyldodecyl)5,5′-(((3R,4S)-1-(6-hydroxyhexyl)pyrrolidine-3,4-diyl)bis(oxy))dipentanoate]	97.31	6.25	0.05	79.74	–	–	–	–	–	–
CCCCCCC(CCCC)COC(=O)CCCCO[C@H]1CN(CCCO)C[C@H]1OCCCCC(=O)OCC(CCCC)CCCCCC (stereo partly drawn) [Compound 20, bis(2-butyloctyl) 5,5′-(((3R,4S)-1-(3-hydroxypropyl)pyrrolidine-3,4-diyl)bis(oxy))dipentanoate]	97.36	15.00	0.06	88.33	–	–	–	–	–	–
CCCCCCC(CCCC)COC(=O)CCCCO[C@H]1CN(CCCCCO)C[C@H]1OCCCCC(=O)OCC(CCCC)CCCCCC (stereo partly drawn) [Compound 21, bis(2-butyloctyl) 5,5′-(((3R,4S)-1-(5-hydroxypentyl)pyrrolidine-3,4-diyl)bis(oxy))dipentanoate]	98.87	14.91	0.0532	93.39	–	–	–	–	–	–
CCCCCCC(CCCC)COC(=O)CCCCO[C@H]1CN(CCCCCCO)C[C@H]1OCCCCC(=O)OCC(CCCC)CCCCCC (stereo partly drawn) [Compound 22, bis(2-butyloctyl) 5,5′-(((3R,4S)-1-(6-hydroxyhexyl)pyrrolidine-3,4-diyl)bis(oxy))dipentanoate]	98.18	10.78	0.05	148.20	–	–	–	–	–	–

— patent US20250034088A1, “LIPIDS AND USES THEREOF” (TAIWAN BIO-MANUFACTURING CORPORATION, priority 2023, published 2025)
